According to publication doi:10.1101/2025.10.23.684218v2, “Development of a dual chemical probe for the USP16 and HDAC6 zinc-finger ubiquitin-binding domain” (biorxiv, 2025):

How the values were obtained:
[1] = target: T1, USP16-UBD (USP16 25-185) (Homo sapiens, UniProt Q9Y5T5); test: biochemical; parameters: SPR, steady-state binding to immobilised biotinylated UBD proteins; conditions: read-out: SPR Kd µM (USP16)
[2] = target: T1, USP16-UBD (USP16 25-185); test: SPR, steady state; type: binding
[3] = target: T2, HDAC6-UBD (HDAC6 1109-1215) (Homo sapiens, UniProt Q9UBN7); test: SPR, steady state; type: binding
T2 sequence (Q9UBN7 1109-1215): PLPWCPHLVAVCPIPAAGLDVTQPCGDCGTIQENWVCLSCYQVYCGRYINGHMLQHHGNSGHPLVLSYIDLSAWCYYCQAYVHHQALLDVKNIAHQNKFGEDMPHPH

[4] = target: T2, HDAC6-UBD (HDAC6 1109-1215); test: biochemical; parameters: SPR, steady-state binding to immobilised biotinylated UBD proteins; conditions: read-out: SPR Kd µM (HDAC6)
[5] = target: T1, USP16-UBD (USP16 25-185); test: SPR, steady state; type: binding; conditions: pH […] °C, […] DMSO
[6] = target: T2, HDAC6-UBD (HDAC6 1109-1215); test: SPR, steady state; type: binding; conditions: pH […] °C, […] DMSO

T1 sequence (Q9Y5T5 25-185): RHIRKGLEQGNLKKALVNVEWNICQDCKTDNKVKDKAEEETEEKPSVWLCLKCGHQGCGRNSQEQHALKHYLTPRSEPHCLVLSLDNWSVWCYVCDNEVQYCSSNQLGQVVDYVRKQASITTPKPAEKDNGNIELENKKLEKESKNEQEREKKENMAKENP

| SMILES | Kd [2] [nM] | Kd [3] [nM] | also measured |
| --- | --- | --- | --- |
| O=C(O)CCc1nc2ccccc2c(=O)n1CC(=O)NCC1CCCCC1 [UBXXML9098] |  |  | Kd [1]: 4.8 µM |
| COc1ccccc1CNC(=O)Cn1c(CCC(=O)O)nc2ccccc2c1=O [UBXXML264] |  |  | Kd [1]: 13 µM |
| O=C(O)CCc1nc2ccccc2c(=O)n1CC(=O)NCc1ccccc1 [UBXXML47] |  |  | Kd [1]: 11 µM |
| Cn1c(CCC(=O)O)nc2ccccc2c1=O [DATR31] |  |  | Kd [4]: 2.7 µM; Kd [1]: 130 µM |
| COc1ccccc1CN(C)C(=O)Cn1c(CCC(=O)O)nc2c(Cl)cccc2c1=O [compound 2] | 5600 ± 2100 |  |  |
| COc1ccccc1C(C)NC(=O)Cn1c(CCC(=O)O)nc2c(Cl)cccc2c1=O (stereo not shown) [compound 3, 3-(8-chloro-3-(2-((1-(2-methoxyphenyl)ethyl)amino)-2-oxoethyl)-4-oxo-3,4-dihydroquinazolin-2-yl)propanoic acid] | 440 | 50 ± 30 |  |
| COc1ccccc1CNC(=O)Cn1c(CCC(=O)O)nc2c(F)cccc2c1=O [UBXXML299] |  |  | Kd [1]: 11 µM |
| COc1ccccc1C(C)N(C)C(=O)Cn1c(CCC(=O)O)nc2c(Cl)cccc2c1=O (stereo not shown) [compound 4, 3-(8-chloro-3-(2-((1-(2-methoxyphenyl)ethyl)(methyl)amino)-2-oxoethyl)-4-oxo-3,4-dihydroquinazolin-2-yl)propanoic acid] |  |  | KD [5]: complete loss of binding activity for both USP16-UBD and HDAC6-UBD; KD [6]: complete loss of binding activity for both USP16-UBD and HDAC6-UBD |

More lines, main results first:

| Kd [2] [nM] | Kd [3] [nM] | SMILES | also measured |
| --- | --- | --- | --- |
| 7800 ± 990 | 2100 ± 70 | O=C(O)CCc1nc2c(Cl)cccc2c(=O)n1CC(=O)NCC1CCCOC1 (stereo not shown) [compound 6, 3-(8-Chloro-4-oxo-3-(2-oxo-2-(((tetrahydro-2H-pyran-3-yl)methyl)amino)ethyl)-3,4-dihydroquinazolin-2-yl)propanoic Acid] |  |
| 2900 ± 1200 | 650 ± 270 | CCOc1ccccc1CNC(=O)Cn1c(CCC(=O)O)nc2c(Cl)cccc2c1=O [compound 7, 3-(8-chloro-3-(2-((2-ethoxybenzyl)amino)-2-oxoethyl)-4-oxo-3,4-dihydroquinazolin-2-yl)propanoic acid] |  |
| < 100 |  | CC(NC(=O)Cn1c(CCC(=O)O)nc2c(Cl)cccc2c1=O)c1c(F)cccc1F (stereo not shown) [compound 14, 3-(8-chloro-3-(2-((1-(2,6-difluorophenyl)ethyl)amino)-2-oxoethyl)-4-oxo-3,4-dihydroquinazolin-2-yl)propanoic acid] |  |
| 1800 ± 960 |  | Cc1ccccc1CNC(=O)Cn1c(CCC(=O)O)nc2c(Cl)cccc2c1=O [compound 8] |  |
| 2900 ± 490 | 31300 ± 2500 | C[C@@H](c1ccccc1F)N(C)C(=O)Cn1c(CCC(=O)O)nc2c(Cl)cccc2c1=O [compound 13, (S)-3-(8-Chloro-3-(2-((1-(2-fluorophenyl)ethyl)(methyl)amino)-2-oxoethyl)-4-oxo-3,4-dihydroquinazolin-2-yl)propanoic Acid] |  |
| 2500 ± 340 | 32300 ± 18200 | CN(Cc1ccccc1F)C(=O)Cn1c(CCC(=O)O)nc2c(Cl)cccc2c1=O [compound 11, 3-(8-Chloro-3-(2-((2-fluorobenzyl)(methyl)amino)-2-oxoethyl)-4-oxo-3,4-dihydroquinazolin-2-yl)propanoic Acid] |  |
| 210 ± 30 | 50 ± 10 | C[C@H](NC(=O)Cn1c(CCC(=O)O)nc2c(Cl)cccc2c1=O)c1ccccc1F [compound 12, (S)-3-(8-Chloro-3-(2-((1-(2-fluorophenyl)ethyl)amino)-2-oxoethyl)-4-oxo-3,4-dihydroquinazolin-2-yl)propanoic Acid] |  |
| 1200 ± 600 |  | O=C(O)CCc1nc2c(Cl)cccc2c(=O)n1CC(=O)NCc1ccccc1Cl [compound 9] |  |
| 400 ± 150 |  | O=C(O)CCc1nc2c(Cl)cccc2c(=O)n1CC(=O)NCc1ccccc1F [compound 10] |  |
